Measurements reported in patent US10375956B2, “Herbicidally active 2-(substituted-phenyl)-cyclopentane-1,3-dione compounds and derivatives thereof” (Syngenta Limited, priority 2013, dated 2019).

What was measured:
Type in all cases: in vivo
Setaria faberi (SETFA) = test: Test 1 glasshouse assay, post-emergence herbicidal activity; details: 312 h, post-emergence (Example 1B Table 1), after 13 days, read-out: Percentage phytotoxicity SETFA
Method in brief: (§1)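 Plants sprayed post-emergence after 8 days' growth with active ingredient in acetone/water (50:50) plus 0.5% Tween 20; glasshouse at 24/16° C day/night, 14 h light, 65% humidity. Visual percentage phytotoxicity scored 13 days later (100% = total damage, 0% = none).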

[1] = test system: Zea mays (ZEAMX, corn/maize); test: as above; details: 312 h, post-emergence (Example 1B Table 1), after 13 days, read-out: Percentage phytotoxicity ZEAMX
Method in brief: as §1

[2] = test system: Amaranthus retroflexus (AMARE); test: as above; details: 312 h, post-emergence (Example 1B Table 1), after 13 days, read-out: Percentage phytotoxicity AMARE
Method in brief: as §1

[3] = test system: Glycine max (GLXMA, soybean); test: Test 2 glasshouse assay (IF50 formulation, X-77), post-emergence herbicidal activity; details: 360 h, 15 DAA, visual score, read-out: Post-emergence herbicidal activity (percentage phytotoxicity) GLXMA; for plant injury at 30 g/ha: application rate 30 g/ha; for plant injury at 250 g/ha: application rate 250 g/ha
Method: (§2) Seeds of a variety of monocotyledonous and dicotyledonous test plants are sown in standard soil in pots. The plants are cultivated for one day (for pre-emergence) or for about 12 days (for post-emergence) under controlled conditions in a glasshouse (warm climate species at 24/18° C., cool climate species at 20/16° C., both at day/night; 16 hours light; 65% humidity).
(§3) An “instant formulation”, known as the “IF50”, containing 50 g/liter (i.e. 5% w/v) of the “technical” (i.e. unformulated) active ingredient is prepared by dissolving the active ingredient in a mixture of organic solvents and emulsifier, details of which are provided in the Table below. This IF50 is then mixed with a small, variable amount of acetone to aid dissolution, before addition of a 0.2% v/v aqueous solution of the adjuvant X-77 (which is a mixture of alkyl aryl polyoxyethylene glycols and free fatty acids in isopropanol, CAS Registry number 11097-66-8), as the aqueous diluent, to form an aqueous spray solution which contains a predetermined concentration of the active ingredient (which varies depending on the application rate of the active ingredient to the plants) and 0.2% v/v of the adjuvant X-77. This aqueous spray solution is then sprayed onto the plants, after one day's cultivation (for pre-emergence), or after about 12 days' cultivation (range=10-13 days) (for post-emergence).
(§4) The test plants are then grown on, in a glasshouse (greenhouse) under controlled conditions (warm climate species at 24/18° C., cool climate species at 20/16° C., both at day/night; 16 hours light; 65% humidity) and are watered twice daily. 15 days after application of the test herbicide (15DAA) (for post-emergence), and 20 days after application of the test herbicide (20DAA) (for pre-emergence), the test plants are evaluated visually, and an assessed percentage phytotoxicity score is given for each herbicidal application on each plant species (with 100%=total damage to plant; 0%=no damage to plant).
(§5) Cool climate crop plants: Triticum aestivum (TRZAW, winter wheat), Brassica napus (BRSNN, rape, also called oilseed rape or rapeseed), Beta vulgaris (BEAVA, sugarbeet). Warm climate crop plants: Glycine max (GLXMA, soybean).

[4] = test system: Beta vulgaris (BEAVA, sugarbeet); test: as above; details: 360 h, 15 DAA, visual score, read-out: Post-emergence herbicidal activity (percentage phytotoxicity) BEAVA; for plant injury at 30 g/ha: application rate 30 g/ha; for plant injury at 250 g/ha: application rate 250 g/ha
Method: as §2, §3, §4, §5

[5] = test system: Triticum aestivum (TRZAW, winter wheat); test: as above; details: 360 h, 15 DAA, visual score, read-out: Post-emergence herbicidal activity (percentage phytotoxicity) TRZAW; for plant injury at 30 g/ha: application rate 30 g/ha; for plant injury at 250 g/ha: application rate 250 g/ha
Method: as §2, §3, §4, §5

[6] = test system: Brassica napus (BRSNN, rape); test: as above; details: 360 h, 15 DAA, visual score, read-out: Post-emergence herbicidal activity (percentage phytotoxicity) BRSNN; for plant injury at 30 g/ha: application rate 30 g/ha; for plant injury at 250 g/ha: application rate 250 g/ha
Method: as §2, §3, §4, §5

Avena fatua (AVEFA) = test: as above; details: 360 h, 15 DAA, visual score, read-out: Post-emergence herbicidal activity (percentage phytotoxicity) AVEFA; for pest or weed control at 30 g/ha: application rate 30 g/ha; for pest or weed control at 250 g/ha: application rate 250 g/ha
Method: as §2, §3, §4
(§6) Cool climate (“cool season”) grassy monocotyledonous weeds: Alopecurus myosuroides (ALOMY), Avena fatua (AVEFA), Lolium perenne (LOLPE).

[7] = test system: Alopecurus myosuroides (ALOMY); test: as above; details: 360 h, 15 DAA, visual score, read-out: Post-emergence herbicidal activity (percentage phytotoxicity) ALOMY; for pest or weed control at 30 g/ha: application rate 30 g/ha; for pest or weed control at 250 g/ha: application rate 250 g/ha
Method: as §2, §3, §4, §6

Lolium perenne (LOLPE) = test: as above; details: 360 h, 15 DAA, visual score, read-out: Post-emergence herbicidal activity (percentage phytotoxicity) LOLPE; for pest or weed control at 30 g/ha: application rate 30 g/ha; for pest or weed control at 250 g/ha: application rate 250 g/ha
Method: as §2, §3, §4, §6

[8] = test system: Echinochloa crus-galli (ECHCG); test: as above; details: 360 h, 15 DAA, visual score, read-out: Post-emergence herbicidal activity (percentage phytotoxicity) ECHCG; for pest or weed control at 30 g/ha: application rate 30 g/ha; for pest or weed control at 250 g/ha: application rate 250 g/ha
Method in brief: (§7)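 Seeds sown in standard soil, grown 1 day (pre) or about 12 days (post) in glasshouse (warm species 24/18 °C, 16 h light, 65% humidity), then sprayed with IF50 (50 g/L active) in 0.2% v/v aqueous X-77 at rate-dependent concentration. Visual % phytotoxicity scored 20 DAA (pre) or 15 DAA (post).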

[9] = test system: Panicum miliaceum (PANMI); test: as above; details: 360 h, 15 DAA, visual score, read-out: Post-emergence herbicidal activity (percentage phytotoxicity) PANMI; for pest or weed control at 30 g/ha: application rate 30 g/ha; for pest or weed control at 250 g/ha: application rate 250 g/ha
Method in brief: as §7

| Structure (SMILES) | pest or weed control at 30 g/ha (Setaria faberi (SETFA)) [%] | pest or weed control at 250 g/ha (Setaria faberi (SETFA)) [%] | pest or weed control at 30 g/ha [1] [%] | pest or weed control at 250 g/ha [1] [%] | pest or weed control at 30 g/ha [2] [%] | pest or weed control at 250 g/ha [2] [%] | plant injury at 30 g/ha [3] [%] | plant injury at 250 g/ha [3] [%] | plant injury at 30 g/ha [4] [%] | plant injury at 250 g/ha [4] [%] | plant injury at 30 g/ha [5] [%] | plant injury at 250 g/ha [5] [%] | plant injury at 30 g/ha [6] [%] | plant injury at 250 g/ha [6] [%] | pest or weed control at 30 g/ha (Avena fatua (AVEFA)) [%] | pest or weed control at 250 g/ha (Avena fatua (AVEFA)) [%] | pest or weed control at 30 g/ha [7] [%] | pest or weed control at 250 g/ha [7] [%] | pest or weed control at 30 g/ha (Lolium perenne (LOLPE)) [%] | pest or weed control at 250 g/ha (Lolium perenne (LOLPE)) [%] | other results |
| --- | --- | --- | --- | --- | --- | --- | --- | --- | --- | --- | --- | --- | --- | --- | --- | --- | --- | --- | --- | --- | --- |
| C#CCC1CC(=O)C(c2c(Cl)cc(-c3ccc(F)cc3)cc2OC)C1=O (stereo not drawn) [Compound A7] | 100 | 100 | 100 | 100 | 20 | 80 | 0 | 20 | 20 | 70 | 50 | 90 | 60 | 80 | 20 | 100 | 10 | 100 | 30 | 80 | pest or weed control at 30 g/ha [8]: 100%; pest or weed control at 250 g/ha [8]: 100%; pest or weed control at 30 g/ha [9]: 100%; pest or weed control at 250 g/ha [9]: 100% |
| C#CCC1CC(=O)C(c2c(F)cc(-c3ccc(Cl)cn3)cc2Cl)C1=O (stereo not drawn) [Compound A8] | 100 | 100 | 100 | 100 | 80 | 90 | 20 | 40 | 10 | 60 | 30 | 90 | 70 | 80 | 50 | 90 | 50 | 80 | 40 | 60 | pest or weed control at 30 g/ha [8]: 70%; pest or weed control at 250 g/ha [8]: 100%; pest or weed control at 30 g/ha [9]: 100%; pest or weed control at 250 g/ha [9]: 100% |
| C#CCC1CC(=O)C(c2c(Cl)cc(-c3ccc(Cl)cn3)cc2OC)C1=O (stereo not drawn) [Compound A10] | 100 | 100 | 100 | 100 | 80 | 80 | 40 | 70 | 60 | 80 | 70 | 80 | 80 | 80 | 60 | 100 | 50 | 100 | 30 | 90 | pest or weed control at 30 g/ha [8]: 100%; pest or weed control at 250 g/ha [8]: 100%; pest or weed control at 30 g/ha [9]: 100%; pest or weed control at 250 g/ha [9]: 100% |
| C#CCC1CC(=O)C(c2c(Cl)cc(-c3ccc(Cl)cc3)cc2OC)C1=O (stereo not drawn) [Compound A11, 2-[2-chloro-4-(4-chlorophenyl)-6-methoxyphenyl]-4-prop-2-ynylcyclopentane-1,3-dione] | 100 | 100 | 100 | 100 | 50 | 80 | 0 | 20 | 20 | 70 | 60 | 90 | 30 | 70 | 20 | 70 | 30 | 70 | 30 | 40 | pest or weed control at 30 g/ha [8]: 100%; pest or weed control at 250 g/ha [8]: 100%; pest or weed control at 30 g/ha [9]: 100%; pest or weed control at 250 g/ha [9]: 100% |
